From patent US12121565B2, “Methods of treatment of specific cancers with NLRP3 inhibitors and anti-PD1/PD-L1 antibodies” (Duke University, priority 2019, dated 2024) come the findings set out here.

This test has as its system human melanoma tissue specimens. In words: RNASeq of human melanoma tissue at baseline and during disease progression. It counts as in vivo. The note with it: following disease progression versus baseline. From the text:
All plasma samples were collected from 17 advanced melanoma patients undergoing anti-PD-1 ab immunotherapy at week 0 and week 12 on an ongoing tissue acquisition protocol investigating checkpoint inhibitor resistance at Duke Cancer Institute (NCT02694965). Three paired tumor specimens obtained at week 0 and at the time of disease progression while undergoing anti-PD-1 ab immunotherapy were collected at Vanderbilt University Medical Center (Institutional Protocol #: 100178). Treatment responses were evaluated based on RECIST (Response Evaluation Criteria in Solid Tumors v1.1).
RNA-seq was performed by Duke Sequencing and Genomic Technologies Shared Resources. A complementary DNA library was prepared via oligo-dT-directed reverse transcription (Ambion) and subjected to deep sequencing on IlluminaHiSeq4000 (50-bp single-read sequencing; Anti-PD-1 resistance Study RNA-seq, accession number: SAMN09878780). RNA-seq data generated here and publicly available RNA-seq data were processed by Duke Center for Genomic and Computational Biology using the TrimGaloretoolkit that uses Cutadapt to trim low-quality bases and Illumina sequencing adapters from the 3′ end of the reads. Only reads that were of 20 nucleotides (nt) or longer after trimming were kept for further analysis. Reads were mapped to the GRCm38v68 version of the mouse genome and transcriptome using the STAR RNA-seq alignment tool. […]

“nivolumab: an anti-PD-1 antibody, available from Bristol-Myers Squibb Co”: the “expression of myeloid markers CXCL1, CD33, ITGAM, CXCR2, S00A8 and S00A9” value is recorded as “elevated expression”.
